Measurements from PubChem BioAssay (NCI).
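Results reflect a 48-hour exposure of cells in 96-well plates to compound at five concentrations. Here, GI50 denotes the concentration required for 50% inhibition of growth. At the TGI there is no net growth.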

Columns and labels:
Test in all cases: NCI anticancer screen, dose series, 48 h
PC-3 prostate = tested on: PC-3 prostate
SW-620 colon = tested on: SW-620 colon
SK-MEL-2 melanoma = tested on: SK-MEL-2 melanoma
786-0 renal = tested on: 786-0 renal
NCI-H460 lung = tested on: NCI-H460 lung
SN12C renal = tested on: SN12C renal
MOLT-4 leukemia = tested on: MOLT-4 leukemia
RXF 393 renal = tested on: RXF 393 renal
SF-295 CNS = tested on: SF-295 CNS
CCRF-CEM leukemia = tested on: CCRF-CEM leukemia

Row | Compound | GI50 (PC-3 prostate) [µM] | TGI (PC-3 prostate) [µM] | GI50 (SW-620 colon) [µM] | TGI (SW-620 colon) [µM] | GI50 (SK-MEL-2 melanoma) [µM] | TGI (SK-MEL-2 melanoma) [µM] | GI50 (786-0 renal) [µM] | TGI (786-0 renal) [µM] | GI50 (NCI-H460 lung) [µM] | TGI (NCI-H460 lung) [µM] | GI50 (SN12C renal) [µM] | TGI (SN12C renal) [µM] | GI50 (MOLT-4 leukemia) [µM] | TGI (MOLT-4 leukemia) [µM] | GI50 (RXF 393 renal) [µM] | TGI (RXF 393 renal) [µM] | GI50 (SF-295 CNS) [µM] | TGI (SF-295 CNS) [µM] | TGI (CCRF-CEM leukemia) [µM] | GI50 (CCRF-CEM leukemia) [µM]
1 | OCC1OC(N2C=C(c3nc4ccccc4s3)C3C=CC=CC32)C(O)C(O)C1O (stereo not given) | 13 | > 50 | 21 | > 50 | 31.7 | > 50 | 17.6 | > 50 | 24 | > 50 | 28.8 | > 50 | 36.5 | > 50 | 18.9 | > 50 | 13.4 | 37.9 | – | –
2 | CCNCC(=O)Nc1ccc2c(c1)C(=O)c1ccc(NC(=O)CNCC)cc1C2=O | – | > 100 | – | 12.8 | – | 47.4 | – | 7.92 | – | – | – | 6.45 | – | – | – | 13.3 | – | 14.2 | > 100 | –
3 | COc1cc(CSc2nc3ccc(Cl)cc3c(=O)n2Cc2ccccc2)cc(OC)c1OC | 3.48 | > 100 | 2.65 | > 100 | 6.57 | 59.4 | 7.62 | 41.3 | 3.33 | > 100 | 5.2 | > 100 | 4.41 | > 100 | 3.15 | 13.4 | – | – | > 100 | 3.6
4 | CCOC(=O)C1CC(=O)C=C2CCCCC21 (stereo not given) | – | – | – | > 100 | – | > 100 | – | > 100 | – | > 100 | – | > 100 | – | > 100 | – | > 100 | – | > 100 | > 100 | –
5 | Clc1cc(Br)ccc1-c1ccc(CNCC2CCNCC2)o1 | 1.64 | 3.3 | 1.85 | 3.72 | 1.75 | 3.53 | 1.55 | 3.06 | 1.87 | 3.72 | 2.23 | 7.69 | 1.7 | 3.57 | – | – | 1.94 | 3.99 | 3.54 | 1.58
6 | CCN1/C(=C/C(C)=C/c2sc3ccc4ccccc4c3[n+]2CC)Sc2ccc3ccccc3c21 | 0.085 | 1.46 | 0.114 | 0.277 | 0.193 | 0.586 | 0.268 | 1.09 | 0.121 | 0.329 | 0.189 | 1.05 | 0.164 | 2.15 | – | – | 0.121 | 0.674 | – | –
7 | O=C(O)c1cnc2c(ccc3[nH]cccc32)c1=O | – | – | – | > 100 | – | > 100 | – | > 100 | – | > 100 | – | > 100 | – | > 100 | – | > 100 | – | – | > 100 | –
8 | COC(=O)c1c2c(c(C)[n+]([O-])c1C)C(=O)C(NCc1ccccc1)=CC2=O | – | – | 3.12 | 10.6 | 2.63 | 9.48 | 3.68 | 23.7 | 2.74 | 10.9 | 2.13 | 5.48 | 2.21 | 5.6 | 2.48 | 7.88 | 2.6 | 7.5 | 22.3 | 2.98
9 | O=S(O)O.O=S(O)O.[Co].[NH2-].[NH2-].[NH2-].[NH2-] | > 100 | > 100 | > 100 | > 100 | > 100 | > 100 | > 100 | > 100 | > 100 | > 100 | > 100 | > 100 | – | – | > 100 | > 100 | > 100 | > 100 | – | –
10 | COc1ccc(C)c2sc(N(Cc3cccnc3)C(=O)c3ccc(C#N)cc3)nc12 | 30.2 | > 100 | 54.2 | > 100 | – | – | 56.8 | > 100 | 40 | > 100 | 44.2 | > 100 | 33.5 | > 100 | 26.1 | 99.8 | 51.8 | > 100 | > 100 | 36.6
11 | COc1ccc(C2c3ccc4ccccc4c3Oc3ncn(CCCn4ccnc4)c(=N)c32)cc1OC (stereo not given) | 3.23 | 12.9 | 2.73 | 9.24 | – | – | 3.1 | 11 | 3.65 | 13.2 | 3.64 | 17.7 | 2.59 | 6.25 | 1.78 | 4.64 | 4.35 | 19.9 | 6.9 | 2.52
12 | CCOC(=O)NC(=O)c1cn(CCSCCOC(=O)NCCCCCCNC(=O)OCCSCCn2cc(C(=O)NC(=O)OCC)c(=O)n(C)c2=O)c(=O)n(C)c1=O | – | – | – | > 100 | – | > 100 | – | 79.8 | – | > 100 | – | > 100 | – | > 100 | – | > 100 | – | > 100 | > 100 | –
13 | O=CCCn1[nH]c(=O)ccc1=O | – | – | – | > 100 | – | > 100 | – | > 100 | – | > 100 | – | > 100 | – | > 100 | – | > 100 | – | > 100 | > 100 | –
14 | O=S1Nc2cccc(C(F)(F)F)c2S1 (stereo not given) | – | – | – | 23.8 | – | 88.6 | – | > 100 | – | > 100 | – | > 100 | – | 55.4 | – | 73.7 | – | > 100 | 29.3 | –
15 | COc1ccc(C2(Cl)C(Cl)(C(F)(F)F)C2(Cl)C(F)(F)F)cc1 (stereo not given) | – | – | – | 33.1 | – | 27.2 | – | 31 | – | 30.2 | – | 29.2 | – | 15 | – | 24.6 | – | 29 | 33.2 | –
16 | O/N=C1/CCCC/C1=C\c1ccc(Cl)c(Cl)c1 | – | – | – | > 100 | – | – | – | > 100 | – | 57.1 | – | 42.3 | – | 36.4 | – | – | – | > 100 | 59.7 | –
17 | C[C@@H]1CC[C@@]2(C)OC(c3ccccc3)[C@H](CO)N2C1=O (stereo not given in full) | – | – | – | > 100 | – | > 100 | – | > 100 | – | > 100 | – | > 100 | – | – | – | > 100 | – | > 100 | – | –
